What all share (assay type): cell-based
Assay [1] concerns Pseudomonas aeruginosa ATCC 31461 biofilms. Put plainly: Anti-biofilm activity on 48-hour Pseudomonas aeruginosa ATCC 31461 biofilms, 4-hour treatment, crystal violet. The settings on record: FIG. 6. The protocol:
Each plate was then incubated at 37° C. for 24 hrs and, afterwards, the plates were treated with various concentrations of acetylcysteine, bromelain and/or ampicillin. The plate was then incubated at 37° C. for 4 hrs.
(§1) After treatment, the cells were fixed with 99% methanol and stained with 1% crystal violet. The stained biofilm was dissolved with 33% acetic acid and the absorbance was read at 590 nm. The results were analyzed using Prism GraphPad software.

The subject of a further assay is biofilm. Put plainly: Inventor's summary statements on biofilm experiments. The settings on record: at therapeutically appropriate dosages.
For assay [2], the system named is Staphylococcus aureus ATCC 6538 biofilms. Put plainly: Anti-biofilm activity on preformed 24-hour/48-hour Staphylococcus aureus ATCC 6538 biofilms, 4-hour treatment, crystal violet, 590 nm. Conditions: 24-hour biofilm. Here is the method:
The plates were then incubated at 37° C. for 4 hrs. After treatment, the cells were fixed with 99% methanol and stained with 1% crystal violet. The stained biofilm was dissolved with 33% acetic acid and the absorbance was read at 590 nm. The results were analyzed using Prism GraphPad software.

In assay [3] the test system is Pseudomonas aeruginosa PA01 398 biofilms. The assay can be described thus: Anti-biofilm activity on 48-hour Pseudomonas aeruginosa PA01 398 biofilms, 4-hour combined or staged treatment, crystal violet. Conditions: NAC 25 and 50 mg/ml single agent, FIG. 9. The protocol: Each plate was then incubated at 37° C. for 24 hrs and, afterwards, the plates were treated with various concentrations of acetylcysteine, bromelain, gentamicin, ampicillin and combinations thereof. The plate was then incubated at 37° C. for 4 hrs.
as §1
Each plate was then incubated at 37° C. for 24 hrs and, afterwards, the plates were treated with various concentrations of acetylcysteine, bromelain and either gentamicin or ampicillin. The plate was then incubated at 37° C. for 4 hrs. After treatment, the cells were fixed with 99% methanol and stained with 1% crystal violet. The stained biofilm was dissolved with 33% acetic acid and the absorbance was read at 590 nm. The results were analyzed using Prism GraphPad software.
In the first series of experiments, the results of which are shown in FIG. 12, 48-hour Pseudomonas aeruginosa PA01 398 biofilms were treated for 4-hours with the compositions shown in the table including ampicillin (50-200 μg/mL), bromelain (25 μg/mL) and acetylcysteine (10 mg/mL) in 5% glucose. […]

“Also recorded” adds a separate entry of the source.

From US20230226160A1, “COMPOSITIONS AND METHODS FOR TREATING BACTERIAL INFECTIONS” (MUCPHARM PTY LTD, priority 2020, published 2023) come the findings set out here.

As for `CC(=O)N[C@@H](CS)C(=O)O` [acetylcysteine], the effectiveness on biofilm result in assay [1] (acetylcysteine 25 mg/mL single agent) is “not effective”; in assay [1] (acetylcysteine 50 mg/ml single agent) it was “moderately effective”. Further, the “effect of acetylcysteine alone on biofilm” value with biofilm is reported as “no appreciable effect; also recorded: relatively ineffective”. In addition, in assay [2] (acetylcysteine 20 mg/mL single treatment, 4-hour, FIG. 3), the “effect on biofilm eradication” value is recorded as “no effect on biofilm eradication”. In addition, the “effect on biofilm as single agent” value in assay [3] was “antagonistic”.

With gentamicin, the biofilm eradication is 2% in assay [2] (gentamicin 12 μg/ml single agent, 4-hour, FIG. 5) and “approximately 60%” in assay [2] (gentamicin 35 μg/ml single agent, most effective gentamicin treatment). Moreover, the “effectiveness of single agent (eradication)” value in assay [2] (gentamicin 16 μg/ml single agent, compared to the concentration in combination, FIG. 5) is 5%.
